The test system of experiment [1] is biosynthesis of prostaglandins (microsomes of the seminal vesicle of bovine). Description: Inhibitory effect on prostaglandin biosynthesis in vitro (Table 3). The format is biochemical. Conditions: 4 μg/ml sodium arachidonate, bioassay on rat fundus stomach strips. The protocol: Sprangue-Dawley rats (male, 180-200 g) were fasted overnight, and killed by blow on the head. The stomach was isolated, and fundus stomach strips were prepared. The smooth muscle strips were perfused with Krebs-Hensleit solution (gassed with 95% O2 +5% CO2 gas) of 37° C. at a rate of […]. The Krebs-Hensleit solution contained 0.1 μg/ml of atropine, 0.1 μg/ml of phenoxybenzamine, 3 μg/ml of propranolol, 0.1 μg/ml of tripelennamine, and 0.2 μg/ml of methylsergide to prevent the effect of smooth muscle contracting substances, and 1 μg/ml of indomethacine to inhibit the biosynthesis of prostaglandin by the smooth muscles. Then, 150 μl of a reaction solution containing biologically synthesized prostaglandin was added to the perfusion solution, and the amount of the biologically synthesized prostaglandin was measured from the contraction of the smooth muscles. The contraction of the smooth muscles was recorded on a recorder using an isotonic transducer.
The reaction solution containing biologically synthesized prostaglandin was prepared in the following manner.
To 0.4 mg/ml of microsomes of the seminal vesicle of bovine were added 5 mM of L-tryptophan, 0.025 μM of bovine hemoglobin and 3 mμ of glutathione as cofactors. The mixture was incubated together with each of the test compounds shown in Table 4 at 37° C. for 2 minutes, and immediately then, 4 μg/ml of sodium arachidonate was added. The mixture was further incubated at 37° C. for 10 minutes, and immediately then, the prostaglandin activity of the reaction solution was measured by bioassay.
The microsomes of the seminal vesicle of bovine had been prepared by suspending microsomes of the seminal vesicle of bovine (a product of Miles Laboratories, Inc.) in a 50 mM Tris.HCl buffer (pH 7.4) using a glass homogenizer, and stored in ice water prior to use.
ID50 denotes the concentration of each test compound required to inhibit the biosynthesis of prostaglandins by 50%.

For experiment [2], the system named is platelet aggregation (platelet-rich plasmas (PRP) of guinea pigs). Nature of the experiment: Activity of inhibiting platelet aggregation in vitro, guinea pig PRP, sodium arachidonate as aggregating agent (Table 1). Type of experiment: cell-based, Hartley-strain male guinea pigs. The conditions noted are these: Cavia porcellus, sodium arachidonate 0.03 mM final, 37° C., final concentration, read-out: IC50 (minimum concentration of drug which showed a percent inhibition of more than 50%). The method, then: Some 1-substituted-3-acylpyrrole derivatives and other drugs were tested for platelet aggregation inhibiting activities in vitro using platelet-rich plasmas (PRP) of man and guinea pigs. The results are shown as minimum concentration of drugs which inhibit more than 50% of platelet aggregation induced by several aggregating agents.
In experiments with PRP of guinea pigs, sodium arachidonate (final concentration 0.03 mM) was used as an aggregating agent. In experiments with human PRP, sodium arachidonate (final concentration 0.1 mM), collagan suspension (final concentration 10 μg/ml), epinephrine solution (final concentration 20 μg/ml; for secondary aggregation), an epinephrine solution (final concentration 2 μg/ml; for primary aggregation) and ADP (final concentration 5 μM) were used as aggregating agents.
In an experiment with guinea pig PRP, citrated blood (containing 0.38% sodium citrate as a final concentration) was withdrawn by cardiac puncture from Hartley-strain male guinea pigs having a body weight of 350 to 600 g. The citrated blood was centrifuged at 1,000 rpm for 10 minutes at room temperature, and the supernatant platelet suspension (PRP) was separated.
The PRP was stored at room temperature, and used as soon as possible. Those which had been stored for more than 4 hours after preparation were not used.
For each test, a drug is dissolved in dimethylsulfoxide to a concentration of 10 mg/ml, and diluted with physiological saline to form 1 ml each of solutions having a concentration of 2500 μg/ml, 1000 μg/ml, 750 μg/ml, 500 μg/ml, 250 μg/ml and 100 μg/ml. A compound having a free carboxylic acid as a residue such as indomethacine and Ibprofen was dissolved in 0.1 M NaHCO3 to form a sodium salt solution having a concentration of 10 mg/ml. Then, the solution was diluted with physiological saline in the same way as above to form a test drug solution.
Arachidonic acid (99% pure, a product of Sigma Co., Ltd.) was dissolved in 0.1 M NaHCO3, and a 3.3 mM solution of sodium arachidonate was prepared. The solution was diluted with physiological saline to a concentration of 1 mM and used in the experiments. The 3.3 mM solution was stored in a refrigerator as a stock solution, and the 1 mM solution was newly prepared from the stock solution every time it was used.
Physiological saline (50 μl) and 50 μl of the aggregating agent solution were added to 400 μl of PRP which had been pre-warmed and stirred at 37° C. in a quvett set in a holder of an aggregometer. Platelet aggregation was thus initiated, and the change of light transmittance through a stirred platelet suspension was recorded for 3 minutes by a recorder joined to the aggregometer. An increase in transmittance after 3 minutes (T0) was used as a parameter of the rate of platelet aggregation in control experiments.
To 400 μl of PRP in a quvett was added 50 μl of a test drug solution. The mixture was pre-incubated and stirred for 2 minutes at 37° C. Then 50 μl of the aggregating agent was added to drug containing PRP and again aggregation responses were recorded as increases in light transmittance after 3 minutes (T1) in the same way as in (1) above. Percent inhibition was calculated from the formula [formula]
For the above in vitro test for the inhibition of platelet aggregation, reference may be had to H. M. Davis, J. Phyllis, K. Paul and W. Terry: Thromb. Res. 11, 217-226 (1977) and R. E. Anderson and J. G. Foulks: Thromb. Haemos. 36, 343-359 (1976).

A further experiment concerns carrageenan edema. Nature of the experiment: Antiinflammatory activity (carrageenan edema of rat paw, Table 5). Conditions: 100 mg/kg orally, 3 h after 1% carrageenan. Type of experiment: in vivo, Sprangue-Dawley (SD) male rats. The protocol: Sprangue-Dawley (SD) male rats with a body weight of 160 to 180 g, four in each group, were used. The volume of the left leg was measured, and each of the test compounds shown in Table 5 (100 mg/kg dissolved in polyethylene glycol so as to provide a volume of 2 ml/kg) was orally administered. One hour later, 0.1 ml of 1% carrageenan (dissolved in physiological saline) as an inflammation-inducing substance was subcutaneously injected to the paw of the left hind leg. A control group was orally administered with 2 ml/kg of polyethylene glycol. As a positive control, 25 mg/kg of Ibprofen was similarly administered. Three hours after the injection of 1% carrageenan, the volume of the left leg was measured, and the ratio of edema was calculated from the volume before the administration of the carrageenan. The percent inhibition of edema in comparison with the control group was determined.
On the technique in general: Carrageenan injected into the paw causes an acute inflammation.

The test system of experiment [3] is platelet aggregation (guinea pig PRP, extra vivo). Nature of the experiment: Inhibitory effect of compounds on platelet aggregation in extra vivo (Table 4). Further details: species or system Hartley-strain guinea pigs. Conditions: Cavia porcellus, 100 mg/kg, route PS [sic], 1 h. The method, then: The effect of the compounds shown in Table 4 on platelet aggregation was assessed using guinea pig in extra vivo.
Each of the test compounds was dissolved in propylene glycol so that its concentration became 100 mg/ml (dosage corresponded to 100 mg/kg) and 30 mg/ml (dosage corresponded to 30 mg/kg). The drug solution was administered either orally or subcutaneously to Hartley-strain guinea pigs (3 per group) having a body weight of 300 to 350 g. As a control, propylene glycol was administered. One hour after the administration, citrated blood was taken out by cardiac puncture, and centrifuged to obtain PRP (see Example 67).
In the case of oral administration, the animals had been fasted overnight.
Into a quvett set in a holder of an aggregometer and prewarmed at 37° C. with stirring, was put 450 μl of the above PRP, and then 50 μl of an aggregating agent was added. The aggregation curve was recorded for an additional 3 minutes, and an increase in light transmittance through PRP after 3 minutes (TB) was recorded (see Example 67). As a control, an increase of transmittance of PRP taken from a guinea pig group administered with propylene glycol alone (TA) was recorded in the same way above. The percent inhibitions were calculated in accordance with the following equation. [formula]
As the aggregating agent, sodium arachidonate (a final concentraton of 0.03 mM) and a collagen suspension (a final concentration of 5 μg/ml) were used.
The percent inhibitions in the above table are averages of three guinea pigs. For details of the above extra vivo test about inhibition of platelet aggregation, the literature references described in Example 67 may be referred to.

[4] abbreviates: collagen 5 μg/ml, read-out: Percent inhibition of platelet aggregation, collagen.
Setting [5] is: sodium arachidonate 0.03 mM, read-out: Percent inhibition of platelet aggregation, sodium arachidonate.

Converted amounts (≈) assume the structure as drawn. Where two headings read alike, the source gives them in different places.

This is an account of results in patent US4233309A, “Novel 1-substituted-3-acylpyrrole derivatives, platelet aggregation inhibitors containing them, as active ingredients, and processes for production of said derivatives” (Teijin Limited, priority 1977, dated 1980).

As to `COCC(C)n1c(C)cc(C(=O)c2ccccc2)c1C` (stereo not shown) [Compound 206, 2-(3-benzoyl-2,5-dimethylpyrrol-1-yl)-2-methylethyl methyl ether], the “ID50 (concentration required to inhibit the biosynthesis of prostaglandins by 50%)” value in experiment [1] amounted to 18.4 µg/mL. In addition, in experiment [2], the IC50 stood at 2.5 µg/mL (≈ 9.21 µM). Besides, in the experiment with carrageenan edema, the “Percent inhibition of edema” value amounted to 10%. In addition, the figures for the inhibition at 100 mg/kg in experiment [3] (setting [4]) and in experiment [3] (setting [5]) were 97% and 90%, respectively.
On the same counts, the results for `CC(=O)OCC(C)n1c(C)cc(C(=O)c2ccccc2)c1C` (stereo not shown) [Compound 306, 2-(3-benzoyl-2,5-dimethylpyrrol-1-yl)-2-methylethyl acetate] are 5.6 µg/mL, 7.5 µg/mL, 16%, 34% and 62%.
